The experiment addresses T1, recombinant human ALK enzyme (ALK WT) (Homo sapiens, UniProt Q9UM73).
T1 construct: purchased Carna Biosciences 08-518
The experiment in a line: ALK WT cell free enzymatic assay (TR-FRET). Particulars: 1 μM ATP; for IC50: 10 point dose response; for inhibition at 1 µM: compound at 1 μM; for inhibition at 1 µM / inhibition at 0.1 µM: 30 min pre-incubation; for inhibition at 0.1 µM: compound at 100 nM. In kind it is biochemical. In short, it runs like this:
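Recombinant human ALK with 40 nM Ultra Light Poly GT, 1 μM ATP and Eu anti-phosphotyrosine antibody, 1% DMSO, pH 7.1 HEPES; 30 min enzyme-compound pre-incubation, then 30 min reaction. TR-FRET 665/615 ratio; percent inhibition at 100 nM and 1 μM, IC50 from 10-point sigmoidal fit.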
On the technique in general: Time-resolved FRET reads energy transfer from a long-lived donor to a nearby acceptor.

For 13 molecules, IC50 and inhibition results are on record in patent US9353107B2 (Aurigene Discovery Technologies Limited, priority 2012, dated 2016).

Where a name gives a salt, the structure may show the parent alone. A value given as a limit tells only on which side of the number the result lay.

T1 sequence (Q9UM73 1058-1620 limits assumed): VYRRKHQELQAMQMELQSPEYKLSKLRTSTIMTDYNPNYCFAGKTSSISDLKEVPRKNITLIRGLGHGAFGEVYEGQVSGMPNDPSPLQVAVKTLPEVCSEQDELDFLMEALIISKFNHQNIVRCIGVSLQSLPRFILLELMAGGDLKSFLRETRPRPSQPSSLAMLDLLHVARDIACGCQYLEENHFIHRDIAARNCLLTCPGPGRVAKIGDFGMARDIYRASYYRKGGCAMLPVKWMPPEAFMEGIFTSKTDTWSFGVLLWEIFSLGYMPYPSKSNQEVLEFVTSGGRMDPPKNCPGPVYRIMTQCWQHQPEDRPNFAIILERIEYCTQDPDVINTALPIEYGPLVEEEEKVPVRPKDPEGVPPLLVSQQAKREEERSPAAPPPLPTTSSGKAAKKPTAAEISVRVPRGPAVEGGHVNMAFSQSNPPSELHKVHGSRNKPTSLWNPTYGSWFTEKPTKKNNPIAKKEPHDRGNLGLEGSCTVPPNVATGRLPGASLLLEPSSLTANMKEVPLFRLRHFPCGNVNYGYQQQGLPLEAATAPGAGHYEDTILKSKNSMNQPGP

One may read the IC50 as the concentration that gives 50% inhibition. As a reminder, the inhibition is the relative decrease from the control value, in per cent. With `CS(=O)(=O)Nc1cccc(-c2cnc3[nH]cc(-c4cnn(Cc5cccc(F)c5)c4)c3c2)c1` [Example 9, N-(3-(3-(1-(3-fluorobenzyl)-1H-pyrazol-4-yl)-1H-pyrrolo[2,3-b]pyridin-5-yl)phenyl)methanesulfonamide], the IC50 was less than 50 nM and the inhibition at 1 µM was determined as 98%.

For the molecule `Cc1nn(Cc2cc(F)cc(F)c2)c(C)c1-c1c[nH]c2ncc(-c3ccc(N4CCNCC4)cc3)cc12` [Example 43, 3-(1-(3,5-difluorobenzyl)-3,5-dimethyl-1H-pyrazol-4-yl)-5-(4-(piperazin-1-yl)phenyl)-1H-pyrrolo[2,3-b]pyridine hydrochloride], the IC50 was less than 50 nM, the inhibition at 0.1 µM came out at 92% and the inhibition at 1 µM is 99%.

Take `C[C@H](O)CN1CCN(c2ccc(-c3cnc4[nH]cc(-c5cnn(Cc6cccc(F)c6)c5)c4c3)nc2)CC1` [Example 146, (S)-1-(4-(6-(3-(1-(3-fluorobenzyl)-1H-pyrazol-4-yl)-1H-pyrrolo[2,3-b]pyridin-5-yl)pyridin-3-yl)piperazin-1-yl)propan-2-ol]: the IC50 fell in the range of 50 to 250 nM, the inhibition at 0.1 µM stood at 60% and the inhibition at 1 µM came to 97%.

Consider `Cc1nn(Cc2cc(F)ccc2F)c(C)c1-c1c[nH]c2ncc(-c3ccc(N4CCNCC4)cc3)cc12` [Example 42, 3-(1-(2,5-difluorobenzyl)-3,5-dimethyl-1H-pyrazol-4-yl)-5-(4-(piperazin-1-yl)phenyl)-1H-pyrrolo[2,3-b]pyridine hydrochloride], for which the IC50 was less than 50 nM, the inhibition at 0.1 µM turned out to be 92% and the inhibition at 1 µM was found to be 100%.

`C[C@H](O)CN1CCCN(c2ccc(-c3cnc4[nH]cc(-c5cnn(Cc6cccc(F)c6)c5)c4c3)cc2)CC1` [Example 164, (S)-1-(4-(4-(3-(1-(3-fluorobenzyl)-1H-pyrazol-4-yl)-1H-pyrrolo[2,3-b]pyridin-5-yl)phenyl)-1,4-diazepan-1-yl)propan-2-ol]: the IC50 is less than 50 nM, the inhibition at 0.1 µM came out at 96% and the inhibition at 1 µM was 99%.

Consider `NC(=O)CN1CCN(c2ccc(-c3cnc4[nH]cc(-c5cnn(Cc6cc(F)cc(F)c6)c5)c4c3)cn2)CC1` [Example 136, 2-(4-(5-(3-(1-(3,5-difluorobenzyl)-1H-pyrazol-4-yl)-1H-pyrrolo[2,3-b]pyridin-5-yl)pyridin-2-yl)piperazin-1-yl)acetamide], for which the half-maximal inhibitory concentration (IC50) is less than 50 nM, the inhibition at 0.1 µM is 97% and the inhibition at 1 µM is 99%.

As for `Cc1nn(Cc2cccc(F)c2)c(C)c1-c1c[nH]c2ncc(-c3ccc(N4CCOCC4)c(NS(C)(=O)=O)c3)cc12` [Example 59, N-(5-(3-(1-(3-fluorobenzyl)-3,5-dimethyl-1H-pyrazol-4-yl)-1H-pyrrolo[2,3-b]pyridin-5-yl)-2-morpholinophenyl)methanesulfonamide], the IC50 lay within 50 to 250 nM, the inhibition at 0.1 µM was 49% and the inhibition at 1 µM was determined as 77%.

As for `CN1CCN(c2ccc(-c3cnc4[nH]cc(-c5cnn(CCc6ccccc6)c5)c4c3)cn2)CC1` [Example 141, 5-(6-(4-methylpiperazin-1-yl)pyridin-3-yl)-3-(1-phenethyl-1H-pyrazol-4-yl)-1H-pyrrolo[2,3-b]pyridine], the IC50 was less than 50 nM, the inhibition at 0.1 µM was 58% and the inhibition at 1 µM amounted to 96%.

`Cc1c(-c2c[nH]c3ncc(-c4ccc(N5CCNCC5)cc4)cc23)cnn1Cc1cccc(F)c1` [Example 44, 3-(1-(3-fluorobenzyl)-5-methyl-1H-pyrazol-4-yl)-5-(4-(piperazin-1-yl)phenyl)-1H-pyrrolo[2,3-b]pyridine hydrochloride]: the IC50 is less than 50 nM, the inhibition at 0.1 µM came to 95% and the inhibition at 1 µM came out at 100%.

Consider `CNS(=O)(=O)c1cc(-c2cnc3[nH]cc(-c4c(C)nn(Cc5cc(F)cc(F)c5)c4C)c3c2)ccc1OC` [Example 21, (3-(1-(3,5-difluorobenzyl)-3,5-dimethyl-1H-pyrazol-4-yl)-1H-pyrrolo[2,3-b]pyridin-5-yl)-2-methoxy-N-methylbenzenesulfonamide], for which the IC50 is less than 50 nM, the inhibition at 0.1 µM is 82% and the inhibition at 1 µM was 96%.

Turning to `CC(=O)Nc1cccc(Cn2nc(C)c(-c3c[nH]c4ncc(-c5ccc(N6CCNCC6)cc5)cc34)c2C)c1` [Example 50, N-(3-((3,5-dimethyl-4-(5-(4-(piperazin-1-yl)phenyl)-1H-pyrrolo[2,3-b]pyridin-3-yl)-1H-pyrazol-1-yl)methyl)phenyl)acetamide], the half-inhibitory concentration (IC50) is less than 50 nM, the inhibition at 0.1 µM turned out to be 60% and the inhibition at 1 µM is 89%.

Consider `Cc1nn(Cc2cc(F)cc(F)c2)c(C)c1-c1c[nH]c2nc(C3CC3)c(-c3ccc(N4CCNCC4)cc3)cc12` [Example 60, 6-cyclopropyl-3-(1-(3,5-difluorobenzyl)-3,5-dimethyl-1H-pyrazol-4-yl)-5-(4-(piperazin-1-yl)phenyl)-1H-pyrrolo[2,3-b]pyridine hydrochloride], for which the inhibition at 0.1 µM is 9% and the inhibition at 1 µM was determined as 10%.

Take `Cc1nn(Cc2cccc(F)c2)c(C)c1-c1c[nH]c2ncc(-c3ccc(N4CCN(C)CC4)cc3)cc12` [Example 56, 3-(1-(3-fluorobenzyl)-3,5-dimethyl-1H-pyrazol-4-yl)-5-(4-(4-methylpiperazin-1-yl)phenyl)-1H pyrrolo[2,3-b]pyridine]: the 50% inhibitory concentration (IC50) is less than 50 nM, the inhibition at 0.1 µM amounted to 91% and the inhibition at 1 µM was 100%.
